Measured values taken from patent US8143397B2 (Medichem S.A., priority 2006, dated 2012).

assay: Tapped density; format: physicochemical; details: after milling, sieving and blending

Tapped Density [g/mL] | Compound
0.82 | C[C@@H](c1ncncc1F)[C@](O)(Cn1cncn1)c1ccc(F)cc1F [Example 24, Voriconazole]

assay: Particle size distribution (Malvern laser particle size analyser); format: physicochemical; details: dispersed in 0.1% Tween 20 in DI water, sonicated 2 minutes
Description: vii. Particle Size Distribution
Particle size measurement was obtained using a Malvern particle size analyser equipped with a 2 milliwatt Helium/Neon laser and a Fourier Transform lens system. The sample was run using the […]. The sample unit was a MS1-Small Volume Sample Dispersion Unit stirred cell. The dispersant was DI water. The sample particle size distribution was assumed to follow a normal distribution.
Analysis model: polydisperse.
Setup presentation: standard wet (30HD)
1 ml of Tween 20 was diluted to 1000 ml with water (solution 0.1% of Tween 20 in DI water). Approximately 250 mg of sample was dispersed in 20 ml of the solution 0.1% of Tween 20 in DI water. This sample was sonicated for 2 minutes and delivered dropwise to the previously filled and background corrected measuring cell until the desired obscuration was reached.
This dispersion (the dispersion in the stirring measuring cell) was measured after stabilization of the obscuration.

Compound | Particle Size Distribution D(v, 0.1) [μm] | Particle Size Distribution D(v, 0.5) [μm] | Particle Size Distribution D(v, 0.9) [μm] | Mean Diameter [μm]
C[C@@H](c1ncncc1F)[C@](O)(Cn1cncn1)c1ccc(F)cc1F [Example 2, Voriconazole] | 36.9 | 102.4 | 220.0 | 
C[C@@H](c1ncncc1F)[C@](O)(Cn1cncn1)c1ccc(F)cc1F [Example 18, Voriconazole] | 4.5 | 16.9 | 37.4 | 18.7
C[C@@H](c1ncncc1F)[C@](O)(Cn1cncn1)c1ccc(F)cc1F [Example 19, Voriconazole] | 5.7 | 20.8 | 43.4 | 23.3
C[C@@H](c1ncncc1F)[C@](O)(Cn1cncn1)c1ccc(F)cc1F [Example 20, Voriconazole] | 4.2 | 14.9 | 34.1 | 17.5
C[C@@H](c1ncncc1F)[C@](O)(Cn1cncn1)c1ccc(F)cc1F [Example 24, Voriconazole] | 35.9 | 147.6 | 350.0 | 

Other lines, results leading:

Particle Size Distribution D(v, 0.1) [μm] | Particle Size Distribution D(v, 0.5) [μm] | Particle Size Distribution D(v, 0.9) [μm] | Mean Diameter [μm] | Compound
5.3 | 16.7 | 34.1 | 18.3 | C[C@@H](c1ncncc1F)[C@](O)(Cn1cncn1)c1ccc(F)cc1F [Example 21, Voriconazole]
5.2 | 19.1 | 39.1 | 21.0 | C[C@@H](c1ncncc1F)[C@](O)(Cn1cncn1)c1ccc(F)cc1F [Example 22, Voriconazole]
5.2 | 17.9 | 37.5 | 19.8 | C[C@@H](c1ncncc1F)[C@](O)(Cn1cncn1)c1ccc(F)cc1F [Example 23, Voriconazole]
5.4 | 17.5 | 37.2 | 19.4 | C[C@@H](c1ncncc1F)[C@](O)(Cn1cncn1)c1ccc(F)cc1F [Example 25, Voriconazole]
